{"source": "paper PMC5107945", "about": "“Abscinazole-E3M, a practical inhibitor of abscisic acid 8′-hydroxylase for improving drought tolerance” (Scientific Reports, 2016)", "key": {"[1]": {"biological_target": "T1, Arabidopsis recombinant CYP707A3 (ABA 8′-hydroxylase) (Arabidopsis thaliana, UniProt Q9FH76)", "T1 construct": "made in house; host or cells: Escherichia coli (microsomal/membrane fraction)", "T1 sequence (Q9FH76 1-463)": "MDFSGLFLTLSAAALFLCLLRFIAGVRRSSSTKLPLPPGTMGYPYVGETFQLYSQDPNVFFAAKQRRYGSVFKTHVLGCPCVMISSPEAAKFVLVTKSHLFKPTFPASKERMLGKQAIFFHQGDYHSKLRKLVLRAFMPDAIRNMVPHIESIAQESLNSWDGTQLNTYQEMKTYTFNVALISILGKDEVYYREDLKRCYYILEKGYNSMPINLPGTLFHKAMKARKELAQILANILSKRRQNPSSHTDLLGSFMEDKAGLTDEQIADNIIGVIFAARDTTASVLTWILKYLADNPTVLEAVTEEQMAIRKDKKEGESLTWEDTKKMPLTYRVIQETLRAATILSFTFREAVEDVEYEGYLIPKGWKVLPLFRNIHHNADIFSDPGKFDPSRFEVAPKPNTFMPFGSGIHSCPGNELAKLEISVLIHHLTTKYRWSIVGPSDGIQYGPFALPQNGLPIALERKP", "test": "CYP707A3 inhibition assay (decrease of enzymatic product PA)", "assay_type": "biochemical", "settings": "Arabidopsis recombinant CYP707A3 expressed in E. coli", "protocol": "The inhibitory activities of Abz-T compounds against ABA 8′-hydroxylase were examined using recombinant Arabidopsis CYP707A3 co-expressed with Arabidopsis P-450 reductase (ATR1) in Escherichia coli[22]. The activity levels were evaluated based on the decrease in the amount of the enzymatic product, PA.\nReactions were initiated by adding NADPH, stopped by the addition of 25 μL of 1 M NaOH and then acidified with 50 μL of 1 M HCl. Reaction products were extracted by loading the mixture onto an Oasis HLB cartridge (1 mL, 30 mg; Waters Corp., Milford, MA, USA) and were washed with 1 mL of 10% MeOH in H2O (v/v) containing 1% acetic acid (AcOH, v/v). The enzyme products were then eluted with 1 mL of MeOH containing 1% AcOH, and the eluate was concentrated in vacuo. Each dried sample was then dissolved in 50 μL of MeOH, and a 20-μL volume was subjected to HPLC (Prominence; Shimadzu Corp., Kyoto, Japan). HPLC conditions were as follows: the octadecylsilyl column was composed of Hydrosphere C18 (150 × 6.0 mm, YMC Co., Ltd., Kyoto, Japan), and the solvent comprised 17% acetonitrile (MeCN) in H2O containing 0.05% AcOH (v/v). The flow rate was 1.0 mL min^−1, and detection was at 254 nm. Enzyme activity was evaluated by determining the amount of PA in control experiments prior to taking each set of measurements. The inhibition constants were determined using the Enzyme Kinetics module of the SigmaPlot 10 software (Systat Software, Inc., San Jose, CA, USA) after determining the inhibition mode by plotting the reaction velocity in the presence and absence of the inhibitor on a double-reciprocal plot. The inhibition ratio was defined as [(A − B)/A] × 100, where A = the amount of PA when the inhibitor was absent from the reaction mixture (control), and B = the amount of PA when the inhibitor was present. All of the tests were conducted at least three times."}, "[2]": {"system": "Arabidopsis seed germination", "test": "Arabidopsis seed germination assay", "assay_type": "in vivo, Arabidopsis (Columbia accession)", "protocol": "Figure 3 Effects of (−)-Abz-T compounds on Arabidopsis seed germination compared with that of (−)-Abz-E2B. Seed germination rates in the presence of 0.1 μM ABA and the indicated concentrations of azole inhibitors at a time when the germination rate of plants treated only with ABA was 80% (n = 3; error bars represent s.d.). Compound 6 is also referred to as Abz-E3M.\nFor the Arabidopsis seed germination assay, 25 to 40 seeds (Columbia accession) were sterilised successively by soaking in 70% EtOH for 30 min and reagent-grade EtOH for 1 min. They were then soaked in distilled water and incubated in the darkness at 5 °C for 3 d. The stratified seeds were then soaked in 100 μL of a test medium liquid agar in 96-well plates and allowed to germinate under continuous illumination at 22 or 30 °C. In these assays, we used the classic definition of radical emergence for seed germination. All of the assays were conducted at least three times."}, "maize stomatal movement": {"system": "maize stomatal movement", "test": "Thermal imaging and transpirational water loss analysis in maize", "assay_type": "in vivo", "settings": "10 mL of 100 μM sprayed per plant, overnight", "protocol": "The effects of (-)-Abz-[…] were also determined relative to stomatal apertures. Arabidopsis grown in soil pots underwent moderate drought stress under the optimal growth conditions of 22 °C and 60% relative humidity. Under these growth conditions, the leaf surface temperature of the mock-treated controls was 19.5 °C, which was lower than the surrounding atmospheric temperature because of transpirational water loss (Fig. 6a,b)[30]. […] Finally, we examined the effects of (-)-Abz-[…] on drought tolerance under more practical conditions. Three-week-old Arabidopsis were sprayed with an aqueous solution containing 50 μM (-)-Abz-[…]. Water was not supplied for 12 days, and then the plants were rehydrated. […] We also tested the effects of (-)-Abz-[…] on a monocot crop, maize, to evaluate whether (-)-Abz-[…] affected stomatal movement and enhanced ABA response across plant species. […] Thus, the effects of (-)-Abz-[…] were not restricted to the model plant Arabidopsis. Figure 7 Effects of (-)-Abz-[…] on maize. (a) Thermal images of the leaf surface temperatures of (-)-Abz-[…]-treated maize plants. (b) Leaf surface temperatures of (-)-Abz-[…]-treated maize plants. The stomatal conductance (c) and transpiration rate (d) in (-)-Abz-[…]-treated maize at different light intensities. […] Values are means with s.d. (n = 4 for leaf surface temperature, n = 3 for stomatal conductance and transpiration rate). (e) Effects of (-)-Abz-[…] on endogenous ABA levels. (f) Expression levels of ZmLEA, Zm.12309.1.S and ZmCOR410 after the (-)-Abz-[…] treatment. […] After an overnight incubation, the conductance and transpiration rate were analysed using an LI-6400 (Li-Cor Biosciences), and the leaf surface temperatures were measured using a thermal imaging camera ([…], Nippon Avionics Co., Ltd.) in the glass house. Temperatures on the leaf surfaces were analysed by NS9200 software (Nippon Avionics Co., Ltd.)."}}, "data": [{"substance": "abscinazole-E3M [(−)-6]", "values": [{"measurement": "IC50", "setting": "[1]; 5 μM ABA as substrate, read-out: CYP707A IC50", "result": 64, "unit": "nM"}, {"measurement": "Ki", "setting": "[1]; ABA 1–64 μM, read-out: CYP707A KI", "result": 35, "unit": "nM"}, {"measurement": "Effect on Arabidopsis seed germination under high temperature conditions", "setting": "[2]; 30 °C, thermoinhibition, Fig. S3", "result": "inhibited Arabidopsis seed germination"}, {"measurement": "Potency in enhancing ABA's effects on seed germination relative to (−)-Abz-E2B", "setting": "[2]; co-treatment with ABA (0.1 μM)", "result": 10, "unit": "fold"}, {"measurement": "Effect on ABA's inhibition of Arabidopsis seed germination", "setting": "[2]; in the presence of 0.1 μM ABA, Fig. 3", "result": "enhanced the effects of ABA"}, {"measurement": "Leaf surface temperature", "setting": "maize stomatal movement", "result": "increased the leaf surface temperature"}, {"measurement": "Stomatal conductance", "setting": "maize stomatal movement", "result": "suppressed"}, {"measurement": "Transpiration rate", "setting": "maize stomatal movement", "result": "suppressed"}]}]}
